From patent US7858578B2, “Methods of inducing neuronal growth by a Fucose-α(1-2) galactose (fuc-α(1-2) gal) moiety and a lectin” (California Institute of Technology, priority 2004, dated 2010)
Values belong to the compound of their own block, whether it stands above or below them. Where a SMILES comes first, the peptide text is derived from it. The star is where a group is joined. Cbz = O=C(OCc1ccccc1)*

Experiments:
[1] = test system: binding of antibody A46-B/B10 to bovine synapsin I; assay: Competition ELISA; settings: competitors 0.078-5 mM
Method: To gain insight into the structural determinants recognized by antibody A46-B/B10, competition enzyme-linked immunosorbent assay (ELISA) experiments were performed using a series of fucose analogs (FIG. 12 A, B). Purified bovine synapsin Ia/Ib (Ueda, T., et al., J. Biol. Chem., 252:5155-5163 (1977)) was a supplied by Drs. P. Greengard and A. Nairn (The Rockefeller University, New York, N.Y.). The protein was immobilized on a microtiter plate by incubation in 50 mM NaHCO3, pH 9.0 at 4° C. overnight. Antibody A46-B/B10 (0.02 mg/mL) and the competitors (0.078-5 mM) were incubated in TBST (50 mM Tris-HCl pH 7.4, 150 mM NaCl, 0.1% Tween-20) at 4° C. overnight and then transferred to the microtiter plate. The wells were washed with TBST and incubated with a goat anti-mouse secondary antibody conjugated to alkaline phosphatase (1:500) at rt for 1 h. The wells were washed with TBST and developed with p-nitrophenyl phosphate. Inhibition curves were generated using PRISM (GraphPAD Software, Inc.).
Synapsin Ia and Ib from bovine brain were immobilized on a microtiter plate, and binding of antibody A46-B/B10 to synapsin was assessed in the presence of varying concentrations of the competitors (see FIG. 12A for structures of the competitor molecules). […] (Haselhorst, T., et al., J. Am. Chem. Soc., 123:10705-10714 (2001))

[2] = test system: synapsin I-transfected HeLa cells; assay: Synapsin degradation with inhibitors of protein degradation with or without 2-dGal; assay type: cell-based; settings: with 2-dGal, 15 h
Method: (§1) FIG. 19. Inhibition of synapsin fucosylation using 2-dGal decreases the expression and half-life of synapsin I. (A) Effects of 2-dGal and 6-dGal on synapsin fucosylation (left panel) and synapsin expression (right panel) levels. Synapsin I-transfected HeLa cells were treated with the indicated amounts of the deoxy sugar for 24 h. Fucosylation and synapsin expression levels were measured by immunoblotting with antibody A46-B/B10 and an anti-synapsin antibody, respectively. […] Synapsin I-transfected HeLa cells were treated with 2-dGal or a vehicle control (PBS), pulse labeled with ^35S-L-cysteine and ^35S-L-methionine as described in Materials and Methods, and chased for the indicated times. ^35S-labeled synapsin levels were measured by autoradiography. (C) Inhibition of the calcium-activated protease calpain using a calpain inhibitor peptide or calpeptin protects synapsin from degradation. […] Synapsin I-transfected HeLa cells were treated with the indicated inhibitors or vehicle control (DMSO, PBS or MeOH) in the presence or absence of 2-dGal for 15 h. Following lysis, the cell extracts were analyzed for synapsin expression levels by immunoblotting.
To investigate the molecular mechanisms responsible for synapsin degradation, cells expressing synapsin were treated with various inhibitors of protein degradation in the presence or absence of 2-dGal. Specifically, the lysosomal inhibitors bafilomycin A1 and ammonium chloride, the proteasome inhibitor MG132, and two inhibitors of the calcium-dependent protease calpain, were used.

hippocampal neurons [3] = assay: Binding of biotinylated probe to cultured hippocampal neurons (streptavidin-AlexaFluor 488 imaging); assay type: cell-based, rat; settings: 3 mM, 10 μM PAO
Method: Hippocampal neurons were cultured using a procedure modified from Goslin and Banker, in Culturing Nerve Cells, Banker, G., Goslin, K., Eds., pp. 251-281, MIT Press: Cambridge, Mass. 1991. Briefly, the hippocampi of embryonic day 18 (E18) rats were dissected and transferred to 4.5 mL of ice-cold Calcium and Magnesium Free-Hank's Balanced Salt Solution (CMF-HBSS). Trypsin (2.5%, no EDTA) was added to 5 mL, and the tissue was incubated for 15 min at 37° C. The trypsin solution was removed and the tissue sample washed three times with 5 mL of CMF-HBSS. Cells were then dissociated from the tissue in 1 mL of CMF-HBSS by passing through a P1000 pipet tip twenty times. The cells were counted, diluted into Minimal Eagle's Medium (MEM) plus 10% fetal bovine serum, and seeded on poly-DL-ornithine-coated glass coverslips (Carolina Biological) at a density of 75 cells/mm2 (100 μL/coverslip) for 30 min. After this time, 500 μL of supplemented Neurobasal medium (47.5 mL Neurobasal medium without Lglutamine; 0.5 mL L-glutamine (200 mM); 0.5 mL penicillin/streptomycin (10,000 U/mL); 0.5 mL antibiotic-antimycotic (100× stock), 1.0 mL B-27 serum-free supplement (50× stock); 50 μL of 0.5 M kynurenic acid in 1 N NaOH) was added to each coverslip. The use of kynurenic acid to block glutamate receptor ion channels and enhance neuronal health and survival is standard protocol for neuronal cultures. Id. The cultures were maintained in 5% CO2 at 37° C. in supplemental Neurobasal medium.
After 23 days in culture, the medium was replaced, and neurons were treated with the endocytosis inhibitor phenylarsine oxide (PAO; 4 μL in DMSO, final concentration 10 μM) (Nouel, D., et al., J. Neurosci. 17:1795-1803 (1997)) and either compound III (24 μL in PBS, final concentration 3 mM), or biotin (24 μL in PBS, final concentration 3 mM), in supplemented Neurobasal medium (400 μL final volume) for 1 h at 37° C., 5% CO2. After 1 h, neurons were rinsed 2 times with PBS, fixed in 4% paraformaldehyde for 20 min at rt, washed 2 times with PBS, permeabilized in 0.3% Triton X-100 for 5 min at rt, and washed 2 times with PBS. Non-specific binding was blocked with 3% BSA for 1 h at rt and then rinsed one time with PBS. Compound III was detected with streptavidin conjugated to AlexaFluor 488 (1:200, Molecular Probes). Dye-conjugated streptavidin was added in 3% BSA for 1 h at 37° C. and the excess reagent washed off 5 times with PBS. Coverslips were then mounted onto slides with Vectashield, sealed, and imaged using confocal laser microscopy. Results can be seen in FIG. 2.
De-lipidation was performed on some samples following the protocol of Yavin, E. et al., J. Neurosci. Res. 9:229-237 (1983). Briefly, after 23 days in culture, cells were rinsed once with PBS then exposed to MeOH/CHCl3 (½ by vol.) for 15 min at −80° C. This procedure fixes the cells to the coverslip and extracts cellular lipids. After removing the MeOH/CHCl3 mixture, coverslips were dried at rt then incubated with 3% BSA for 1 hr at rt. After one rinse with PBS, neurons were treated with PAO and the procedure described above was followed.

hippocampal neurons [4] = assay: Effects of deoxy-galactose sugars on neuronal morphology (anti-tau immunostaining); assay type: cell-based, rat; settings: for rescue of 2-dGal effects: 75 mM Gal for 2 days after 15 mM 2-dGal for 2 days
Method: Hippocampal neurons were plated on poly-DL-ornithine-coated glass coverslips as described above. After one day in culture, the medium was replaced with fresh medium, and the small molecules (2-dGal, 3-Deoxy-D-Galactose (3-dGal), or D-Galactose (Gal)) were added. A dose-response experiment was initially performed to determine the minimum concentration of 2-dGal needed to elicit an effect. Neurons were treated with varying concentrations of 2-dGal (1, 5, 10, 15, or 30 mM in 25 μL PBS with 475 μL of supplemented Neurobasal medium) for 2 days before immunostaining with anti-tau antibodies as described above.
Cells were treated as above under 4 different conditions: (1) no treatment for 2 days, (2) incubation with 15 mM 2-dGal for 2 days, (3) incubation with 15 mM 2-dGal for 2 days followed by incubation with 75 mM Gal for 2 days, or (4) incubation with 15 mM 3-dGal for 2 days. After adding the small molecules, cultures were incubated at 37° C., 5% CO2, then washed once with PBS, and immunostained with anti-tau antibody as described above.

E18 cortical neurons = assay: Expression of synaptic proteins in cultured neurons (Western blotting); assay type: cell-based; settings: 15 mM for 3 days, neurons 7 DIV
Method: FIG. 20. […] (A) E18 cortical neurons cultured for 7 DIV were treated with 15 mM of 2-dGal or 6-dGal for 3 days. Protein lysates were analyzed by Western blotting using antibodies selective for the indicated proteins. A significant reduction in the expression of synapsin Ib was observed, while other synapse-associated proteins were unaffected by the 2-dGal treatment. (B) Neurite retraction caused by 2-dGal is reduced in synapsin-deficient mice. Neurons from synapsin I-deficient or wild-type mice were cultured for 2 days, treated with 2-dGal for 3 days, and analyzed for mean neurite length.
To examine the effects of 2-dGal on synapsin fucosylation in neurons, neurons were cultured for 7 DIV to allow for adequate expression of synapsin and subsequently treated with 2-dGal or 6-dGal for comparison. Cells were lysed and immunoblotted as described above. […] The expression of other synaptic proteins, including NSF, the synaptic vesicle protein synaptotagmin, the presynaptic plasma membrane protein syntaxin, and the postsynaptic proteins PSD-95, the AMPA receptor GluR1 subunit and spinophilin, was unchanged by the 2-dGal treatment.

[5] = test system: synapsin I expressed in HeLa cells; assay: Synapsin fucosylation and expression in synapsin I-transfected HeLa cells (immunoblotting); assay type: cell-based; settings: deoxy sugar for 24 h
Method: as §1
The effects of 2-dGal on synapsin I expressed in HeLa cells were next investigated. Cell lysates containing equivalent amounts of transfected protein were resolved by SDS-PAGE, and the fucosylation and protein levels of synapsin were measured by immunoblotting, using methods described above.

hippocampal slices = settings: cited from earlier work

inhibition of antibody binding to synapsin Ia and Ib [1]: did not compete
Compound: CC(=O)N[C@H]1C(O)O[C@H](CO)[C@@H](O)[C@@H]1O (stereo partly drawn) [N-acetyl-D-glucosamine]

Compound: CO/C1=C\C(C)=C\[C@@H](C)[C@@H](O)[C@@H](C)C/C(C)=C/C=C/[C@H](OC)[C@@H]([C@@H](C)[C@@H](O)[C@H](C)[C@@]2(O)C[C@@H](O)[C@H](C)[C@@H](C(C)C)O2)OC1=O [bafilomycin A1]
rescue of synapsin from 2-dGal-induced degradation [2]: no effect on synapsin degradation

Compound: O=C(O)CCCC[C@@H]1SC[C@@H]2NC(=O)N[C@@H]21 [biotin]
labeling of neurons after de-lipidation (hippocampal neurons [3]; neurons de-lipidated with MeOH/CHCl3): minor binding of the biotin alone to the cell body but not the neurites
binding to hippocampal neurons (hippocampal neurons [3]; 1 h, E18 neurons 23 days in vitro): this binding is not between the biotin moieties and the neuron

inhibition of antibody binding to synapsin Ia and Ib [1]: did not compete
Compound: O=C[C@H](O)[C@@H](O)[C@@H](O)[C@H](O)CO [Gal, D-Galactose]
rescue of 2-dGal effects (hippocampal neurons [4]): rescued
rescue of 2-dGal effects (hippocampal neurons [4]; listed as D-galactose): regeneration of the neuronal processes

inhibition of antibody binding to synapsin Ia and Ib [1]: did not compete
Compound: O=C[C@H](O)[C@@H](O)[C@H](O)[C@H](O)CO [D-glucose]

Compound: CCO[C@@H]1O[C@H](CO)[C@H](O)[C@H](O)[C@H]1O[C@@H]1O[C@@H](C)[C@@H](O)[C@@H](O)[C@@H]1O [Fucα(1-2)Gal-β-OEt, Ethyl O-(α-L-fucopyranosyl)-(1-2)-β-D-galactopyranoside]
inhibition of antibody binding to synapsin Ia and Ib [1]: selectively inhibited

Compound: C[C@@H](O)[C@H](O)[C@H](O)[C@@H](O)C=O [Compound 6-dGal, 6-deoxy-D-galactose]
expression of synapsin I (E18 cortical neurons): no effect
fucosylation level of synapsin [5]: no effect
level of synapsin protein [5]: no effect

Compound: O=C[C@H](O)C[C@@H](O)[C@H](O)CO [Compound 3-dGal, 3-Deoxy-D-Galactose]
effect on neurite outgrowth (hippocampal neurons [4]; 15 mM for 2 days): no impact on neurite outgrowth

inhibition of antibody binding to synapsin Ia and Ib [1]: effective at inhibiting antibody binding
Compound: CCOC1OC(C)C(O)C(O)C1O [L-Fuc-α-OEt, ethyl α/β-L-fucopyranoside]
IC50 (compared in words) [1]: comparable to that of the disaccharide Fucα(1-2)Gal-β-OEt

Compound: CCCC[C@@H](C=O)NC(=O)[C@H](CC(C)C)NC(=O)OCc1ccccc1 [calpeptin]
rescue of synapsin from 2-dGal-induced degradation [2]: rescued the effects of 2-dGal

Compound: CC(C)C[C@@H](C=O)NC(=O)[C@H](CC(C)C)NC(=O)[C@H](CC(C)C)NC(=O)OCc1ccccc1 [MG132] (Cbz-Leu-Leu-Leu-aldehyde)
rescue of synapsin from 2-dGal-induced degradation [2]: no effect on synapsin degradation

inhibition of antibody binding to synapsin Ia and Ib [1]: effective at inhibiting antibody binding
Compound: C[C@H](O)[C@@H](O)[C@@H](O)[C@H](O)C=O [L-fucose]
IC50 (compared in words) [1]: comparable to that of the disaccharide Fucα(1-2)Gal-β-OEt
effect on LTP (hippocampal slices): enhance LTP

Compound: Cl.N [ammonium chloride]
rescue of synapsin from 2-dGal-induced degradation [2]: no effect on synapsin degradation

Compound: 2′fucosyllactose
effect on LTP (hippocampal slices): enhance LTP
